In ChEMBL document CHEMBL1201862, “PubChem BioAssay data set” (2004):
The source made the active and inactive calls.

Columns and labels:
[1] = viability of uninfected HEp-2 cells – cell-based, HTS, cytotoxicity control for RSV inhibitor project, dose response (AID 2410); format: functional; conditions: human respiratory syncytial virus
[2] = target: T1, Rac GTPase-activating protein 1 (Homo sapiens, UniProt Q9H0H5); assay: blockers of MgcRacGAP-driven Rac1 GTP hydrolysis – biochemical, ADP Hunter fluorescence, primary and confirmatory, confirmation (AID 624330); format: functional
T1 sequence (Q9H0H5 whole entry): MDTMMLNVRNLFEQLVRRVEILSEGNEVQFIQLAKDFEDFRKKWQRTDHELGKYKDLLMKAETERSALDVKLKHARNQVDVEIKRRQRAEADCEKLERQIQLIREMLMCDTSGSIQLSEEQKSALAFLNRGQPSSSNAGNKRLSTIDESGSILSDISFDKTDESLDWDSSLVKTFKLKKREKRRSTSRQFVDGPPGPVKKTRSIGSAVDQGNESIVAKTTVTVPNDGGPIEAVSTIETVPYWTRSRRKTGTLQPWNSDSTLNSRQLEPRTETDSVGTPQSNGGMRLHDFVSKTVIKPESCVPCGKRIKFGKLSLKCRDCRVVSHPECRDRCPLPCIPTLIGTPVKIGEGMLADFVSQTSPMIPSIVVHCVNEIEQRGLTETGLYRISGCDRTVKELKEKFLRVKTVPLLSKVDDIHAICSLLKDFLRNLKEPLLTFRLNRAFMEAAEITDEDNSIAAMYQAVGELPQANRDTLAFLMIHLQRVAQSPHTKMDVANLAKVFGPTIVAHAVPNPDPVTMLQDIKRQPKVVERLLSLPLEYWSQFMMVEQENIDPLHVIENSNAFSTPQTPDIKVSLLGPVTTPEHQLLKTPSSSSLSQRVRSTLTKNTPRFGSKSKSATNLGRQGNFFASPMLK

[3] = target: Cytochrome P450 3A4 (Homo sapiens, UniProt P08684); conditions: Potency;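 note: confirmatory qHTS run detecting inhibitors and substrates of CYP3A4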
[4] = target: Voltage-dependent T-type calcium channel subunit alpha-1H (Homo sapiens, UniProt O95180); format: functional;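 note: channel activity triggered by adding a high calcium stimulation buffer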
Chain of Voltage-dependent T-type calcium channel subunit alpha-1H (O95180 whole entry): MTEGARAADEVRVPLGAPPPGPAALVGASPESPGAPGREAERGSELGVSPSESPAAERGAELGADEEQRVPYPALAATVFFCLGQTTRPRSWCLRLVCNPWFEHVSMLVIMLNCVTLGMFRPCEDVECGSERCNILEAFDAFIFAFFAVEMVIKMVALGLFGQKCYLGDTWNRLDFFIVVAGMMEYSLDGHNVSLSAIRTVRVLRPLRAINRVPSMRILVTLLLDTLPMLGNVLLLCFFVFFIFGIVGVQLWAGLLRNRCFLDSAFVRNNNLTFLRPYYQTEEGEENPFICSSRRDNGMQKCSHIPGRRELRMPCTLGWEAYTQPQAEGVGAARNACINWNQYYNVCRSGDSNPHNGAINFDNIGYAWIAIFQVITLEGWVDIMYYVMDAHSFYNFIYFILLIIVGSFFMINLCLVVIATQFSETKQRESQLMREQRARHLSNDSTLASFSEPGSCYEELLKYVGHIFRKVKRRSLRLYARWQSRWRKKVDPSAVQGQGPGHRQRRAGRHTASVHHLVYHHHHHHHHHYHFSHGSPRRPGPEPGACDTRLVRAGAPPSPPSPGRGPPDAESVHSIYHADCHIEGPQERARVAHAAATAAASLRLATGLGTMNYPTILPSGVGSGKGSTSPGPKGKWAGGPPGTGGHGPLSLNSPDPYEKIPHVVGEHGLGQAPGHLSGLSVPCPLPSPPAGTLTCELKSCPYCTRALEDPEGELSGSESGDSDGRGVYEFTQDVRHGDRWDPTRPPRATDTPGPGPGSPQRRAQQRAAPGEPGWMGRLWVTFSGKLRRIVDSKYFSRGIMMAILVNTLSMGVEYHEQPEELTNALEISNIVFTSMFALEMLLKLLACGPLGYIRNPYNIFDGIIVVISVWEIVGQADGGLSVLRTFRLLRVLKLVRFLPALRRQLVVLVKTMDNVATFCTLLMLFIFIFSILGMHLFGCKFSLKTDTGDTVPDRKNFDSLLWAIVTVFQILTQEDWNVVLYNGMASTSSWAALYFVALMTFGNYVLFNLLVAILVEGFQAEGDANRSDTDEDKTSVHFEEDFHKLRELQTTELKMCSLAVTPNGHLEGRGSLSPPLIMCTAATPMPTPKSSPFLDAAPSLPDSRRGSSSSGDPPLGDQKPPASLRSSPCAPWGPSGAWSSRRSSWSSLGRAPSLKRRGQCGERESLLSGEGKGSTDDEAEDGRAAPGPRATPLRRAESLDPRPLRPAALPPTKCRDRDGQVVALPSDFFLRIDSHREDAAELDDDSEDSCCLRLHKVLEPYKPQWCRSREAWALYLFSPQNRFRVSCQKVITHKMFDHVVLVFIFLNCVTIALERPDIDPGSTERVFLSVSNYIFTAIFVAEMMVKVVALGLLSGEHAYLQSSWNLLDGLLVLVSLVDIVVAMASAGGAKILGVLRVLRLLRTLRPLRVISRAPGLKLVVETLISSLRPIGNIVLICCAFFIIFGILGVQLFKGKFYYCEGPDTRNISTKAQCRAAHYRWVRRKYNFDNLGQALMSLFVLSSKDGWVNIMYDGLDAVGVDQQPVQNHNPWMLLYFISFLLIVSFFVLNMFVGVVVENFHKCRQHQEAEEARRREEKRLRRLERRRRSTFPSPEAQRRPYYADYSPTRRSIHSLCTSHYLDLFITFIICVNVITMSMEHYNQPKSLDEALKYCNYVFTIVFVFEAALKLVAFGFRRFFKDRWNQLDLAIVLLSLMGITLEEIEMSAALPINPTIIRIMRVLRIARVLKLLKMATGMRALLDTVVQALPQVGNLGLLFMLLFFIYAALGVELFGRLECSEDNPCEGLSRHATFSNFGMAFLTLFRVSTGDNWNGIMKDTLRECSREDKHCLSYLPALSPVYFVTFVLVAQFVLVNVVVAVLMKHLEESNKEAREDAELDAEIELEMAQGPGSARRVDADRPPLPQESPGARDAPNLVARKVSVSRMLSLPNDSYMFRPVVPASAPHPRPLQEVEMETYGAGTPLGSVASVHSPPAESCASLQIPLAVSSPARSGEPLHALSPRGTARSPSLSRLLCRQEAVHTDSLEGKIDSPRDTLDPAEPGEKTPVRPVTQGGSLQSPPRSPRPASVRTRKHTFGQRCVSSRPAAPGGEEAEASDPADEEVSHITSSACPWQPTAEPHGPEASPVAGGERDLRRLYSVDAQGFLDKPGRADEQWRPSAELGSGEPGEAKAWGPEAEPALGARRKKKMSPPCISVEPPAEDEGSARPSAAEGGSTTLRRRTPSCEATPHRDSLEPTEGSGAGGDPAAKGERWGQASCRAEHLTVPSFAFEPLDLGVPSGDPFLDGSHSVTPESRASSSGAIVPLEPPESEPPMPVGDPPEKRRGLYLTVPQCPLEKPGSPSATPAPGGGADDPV

[5] = Luminescence Cell-Based Dose Retest to Confirm Inhibitors of Cancer Stem Cells. [Related pubchem assays (depositor defined):AID2717, AID2721]; format: functional; conditions: Homo sapiens
[6] = target: T2, Heat shock factor protein 1 (Mus musculus, UniProt P38532); assay: enhancement of HSF1-driven luciferase signal – cell-based, NIH3T3, luminescence, dose retest, confirmation (AID 435004); format: functional;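 note: stress induced by proteasome inhibitor MG132 added 30 min after compound; luciferase reporter driven by HSF1 response element in NIH3T3 cells; actives raise luminescence as potentiators of the MG132 stress response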
T2 sequence (P38532 whole entry): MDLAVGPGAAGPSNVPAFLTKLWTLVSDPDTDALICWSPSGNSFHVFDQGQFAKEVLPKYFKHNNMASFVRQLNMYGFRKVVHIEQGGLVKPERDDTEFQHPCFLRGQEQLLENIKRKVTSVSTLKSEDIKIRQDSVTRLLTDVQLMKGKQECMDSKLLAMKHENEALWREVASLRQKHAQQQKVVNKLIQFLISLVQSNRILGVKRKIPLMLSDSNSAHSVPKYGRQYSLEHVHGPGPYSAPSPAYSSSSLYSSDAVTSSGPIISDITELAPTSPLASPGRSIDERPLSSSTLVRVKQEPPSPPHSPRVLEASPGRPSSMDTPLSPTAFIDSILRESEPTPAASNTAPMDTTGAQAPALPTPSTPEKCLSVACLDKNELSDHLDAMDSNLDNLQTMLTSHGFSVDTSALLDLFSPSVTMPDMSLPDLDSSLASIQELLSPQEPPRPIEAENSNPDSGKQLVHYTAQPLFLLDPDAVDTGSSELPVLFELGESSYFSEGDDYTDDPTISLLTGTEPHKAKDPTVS

[7] = system: Vero; assay: cells; format: functional, cell-based; conditions: Chlorocebus sabaeus
[8] = system: Vero; assay: cells; format: functional; conditions: Chlorocebus sabaeus
[9] = target: Cytochrome P450 2D6 (Homo sapiens, UniProt P10635);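 note: CYP2D6 member of a cytochrome P450 panel assay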
Chain of Cytochrome P450 2D6 (P10635 whole entry): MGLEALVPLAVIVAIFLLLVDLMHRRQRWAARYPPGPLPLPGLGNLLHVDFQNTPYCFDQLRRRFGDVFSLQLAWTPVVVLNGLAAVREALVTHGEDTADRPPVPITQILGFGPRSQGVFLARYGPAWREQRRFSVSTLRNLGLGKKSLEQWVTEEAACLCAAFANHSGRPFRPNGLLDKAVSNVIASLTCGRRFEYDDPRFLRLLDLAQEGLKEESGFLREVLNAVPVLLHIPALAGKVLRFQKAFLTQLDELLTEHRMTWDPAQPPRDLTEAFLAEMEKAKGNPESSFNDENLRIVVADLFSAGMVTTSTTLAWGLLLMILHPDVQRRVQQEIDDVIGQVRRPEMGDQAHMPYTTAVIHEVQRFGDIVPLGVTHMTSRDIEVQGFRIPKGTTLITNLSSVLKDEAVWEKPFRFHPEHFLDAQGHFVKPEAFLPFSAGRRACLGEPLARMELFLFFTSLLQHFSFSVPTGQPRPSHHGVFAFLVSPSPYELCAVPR

[10] = Trypanosoma cruzi growth suppression in host cells – NIH3T3 host cells, beta-gal luminescence, confirmation (AID 2044); format: functional, cell-based;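 note: intracellular parasites grown in NIH/3T3 mouse fibroblasts as host cells; luminescent beta-galactosidase reporter signal from transgenic T. cruzi replicating inside host cells; inhibitors lower the luminescence signal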
[11] = NIH3T3 cell viability loss – ATP luminescence, mouse fibroblasts, counter-screen, dose response (AID 2010); format: functional, cell-based;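 note: cells exposed to compound for about 90 hours before reading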
[12] = target: T3, Ubiquitin-conjugating enzyme E2 N (Homo sapiens, UniProt P61088); format: functional;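 note: Dose-response confirmation in a TR-FRET assay detecting UBC13-driven polyubiquitin chain formation, inhibition measured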
T3 sequence (P61088 whole entry): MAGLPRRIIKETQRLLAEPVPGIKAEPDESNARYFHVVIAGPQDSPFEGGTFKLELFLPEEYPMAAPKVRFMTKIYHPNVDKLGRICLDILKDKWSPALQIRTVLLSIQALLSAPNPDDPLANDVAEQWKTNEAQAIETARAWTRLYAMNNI

[13] = target: Beta-galactosidase (Escherichia coli, UniProt Q8VNN2); assay: detection-enzyme interference by beta-gal modulators – biochemical, E. coli enzyme, set 3, artefact control for CCR6 antagonist project, dose response (AID 504712); format: functional
Chain of Beta-galactosidase (Q8VNN2 whole entry): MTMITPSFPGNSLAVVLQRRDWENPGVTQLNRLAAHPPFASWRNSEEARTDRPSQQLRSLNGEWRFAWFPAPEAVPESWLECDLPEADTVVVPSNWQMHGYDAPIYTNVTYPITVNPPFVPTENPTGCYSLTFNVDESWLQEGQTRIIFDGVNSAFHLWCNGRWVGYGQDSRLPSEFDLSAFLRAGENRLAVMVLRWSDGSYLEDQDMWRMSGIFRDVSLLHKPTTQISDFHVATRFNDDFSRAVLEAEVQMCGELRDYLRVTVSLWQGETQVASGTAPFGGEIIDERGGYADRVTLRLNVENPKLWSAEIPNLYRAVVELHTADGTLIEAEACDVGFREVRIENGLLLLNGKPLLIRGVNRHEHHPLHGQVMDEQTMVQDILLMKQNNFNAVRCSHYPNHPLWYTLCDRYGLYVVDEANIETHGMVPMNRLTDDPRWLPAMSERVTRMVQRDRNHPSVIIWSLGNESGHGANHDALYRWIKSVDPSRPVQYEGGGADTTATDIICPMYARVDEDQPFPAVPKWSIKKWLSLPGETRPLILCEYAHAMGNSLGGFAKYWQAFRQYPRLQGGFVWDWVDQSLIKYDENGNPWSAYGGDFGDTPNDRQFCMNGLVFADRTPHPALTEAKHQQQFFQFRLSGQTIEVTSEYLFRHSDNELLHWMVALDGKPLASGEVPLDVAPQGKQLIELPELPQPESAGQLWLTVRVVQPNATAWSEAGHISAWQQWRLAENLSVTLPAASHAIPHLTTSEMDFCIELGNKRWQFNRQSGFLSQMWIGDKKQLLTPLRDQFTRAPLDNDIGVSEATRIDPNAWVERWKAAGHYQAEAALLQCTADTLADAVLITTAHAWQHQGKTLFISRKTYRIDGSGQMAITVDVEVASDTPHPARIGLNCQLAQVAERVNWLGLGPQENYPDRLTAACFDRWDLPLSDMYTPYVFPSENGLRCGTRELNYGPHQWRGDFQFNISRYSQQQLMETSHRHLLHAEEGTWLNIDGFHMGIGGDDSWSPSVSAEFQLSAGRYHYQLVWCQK

[14] = HEK-293T viability loss after treatment – luminescence, T-cell screen hits, cytotoxicity control for TCR NF-kB inhibitor project, dose response (AID 489026); format: functional, cell-based;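 note: cells exposed to compound about 14 hours before the viability readout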
[15] = target: Paired box protein Pax-8 (Homo sapiens, UniProt Q06710); assay: PAX8 transcriptional activity inhibition in RMG-I – RMG-I cells, luciferase, cherry-pick, dose response (AID 687027); format: functional, cell-based;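 note: luciferase reporter driven by Pax8 target thyroperoxidase promoter measured by SteadyGlo luminescence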
Chain of Paired box protein Pax-8 (Q06710 whole entry): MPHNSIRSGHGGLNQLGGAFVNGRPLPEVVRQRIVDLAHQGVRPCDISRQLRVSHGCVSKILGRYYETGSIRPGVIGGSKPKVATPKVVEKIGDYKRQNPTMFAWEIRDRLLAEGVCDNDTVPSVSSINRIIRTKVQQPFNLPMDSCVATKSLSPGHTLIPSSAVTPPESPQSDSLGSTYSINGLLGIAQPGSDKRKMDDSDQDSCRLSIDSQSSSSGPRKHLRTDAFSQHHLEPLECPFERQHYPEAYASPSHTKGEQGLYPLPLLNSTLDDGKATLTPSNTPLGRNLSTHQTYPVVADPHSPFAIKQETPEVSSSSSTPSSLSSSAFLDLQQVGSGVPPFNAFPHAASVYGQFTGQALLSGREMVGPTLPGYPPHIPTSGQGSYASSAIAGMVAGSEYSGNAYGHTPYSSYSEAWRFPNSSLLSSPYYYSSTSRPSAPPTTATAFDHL

[16] = target: Melanocortin receptor 4 (Homo sapiens, UniProt P32245); format: functional, cell-based;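 note: Cell-based assay with luminescence read-out, confirmatory dose-response testing for agonist activity of biased ligands at MC4R; human U2OS cells with tagged receptor and beta-arrestin; potency of agonists that increase receptor coupling to beta-arrestin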
Chain of Melanocortin receptor 4 (P32245 whole entry): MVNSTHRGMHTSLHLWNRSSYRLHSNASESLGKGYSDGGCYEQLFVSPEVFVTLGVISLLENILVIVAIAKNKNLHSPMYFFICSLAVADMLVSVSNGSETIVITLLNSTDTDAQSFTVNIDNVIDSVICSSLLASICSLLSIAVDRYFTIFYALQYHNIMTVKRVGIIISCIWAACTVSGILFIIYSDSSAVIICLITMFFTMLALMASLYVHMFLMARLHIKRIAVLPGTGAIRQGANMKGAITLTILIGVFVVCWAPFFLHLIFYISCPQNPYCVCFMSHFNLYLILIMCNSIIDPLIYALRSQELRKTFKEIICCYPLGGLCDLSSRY

[17] = target: Cytochrome P450 2C19 (Homo sapiens, UniProt P33261); assay: Cytochrome panel assay with activity outcomes. Panel member name: p450-cyp2c19 Compounds with AC50 equal or less than 10 uM are considered active; format: functional
[18] = target: T4, Low molecular weight phosphotyrosine protein phosphatase (Homo sapiens, UniProt P24666); format: functional; conditions: read-out: IC50_Mean;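 note: Dose-response confirmation assay measuring inhibition of LMPTP enzyme activity by fluorescence intensity read-out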
T4 sequence (P24666 whole entry): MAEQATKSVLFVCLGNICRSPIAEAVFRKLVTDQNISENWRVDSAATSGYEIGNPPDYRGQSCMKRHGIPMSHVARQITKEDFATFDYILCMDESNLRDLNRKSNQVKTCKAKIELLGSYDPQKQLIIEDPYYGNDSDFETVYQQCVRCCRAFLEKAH

[19] = target: T5, Cytochrome P450 1A2 (Homo sapiens, UniProt P05177);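 note: PubChem cytochrome P450 panel assay, CYP1A2 panel member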
T5 sequence (P05177 whole entry): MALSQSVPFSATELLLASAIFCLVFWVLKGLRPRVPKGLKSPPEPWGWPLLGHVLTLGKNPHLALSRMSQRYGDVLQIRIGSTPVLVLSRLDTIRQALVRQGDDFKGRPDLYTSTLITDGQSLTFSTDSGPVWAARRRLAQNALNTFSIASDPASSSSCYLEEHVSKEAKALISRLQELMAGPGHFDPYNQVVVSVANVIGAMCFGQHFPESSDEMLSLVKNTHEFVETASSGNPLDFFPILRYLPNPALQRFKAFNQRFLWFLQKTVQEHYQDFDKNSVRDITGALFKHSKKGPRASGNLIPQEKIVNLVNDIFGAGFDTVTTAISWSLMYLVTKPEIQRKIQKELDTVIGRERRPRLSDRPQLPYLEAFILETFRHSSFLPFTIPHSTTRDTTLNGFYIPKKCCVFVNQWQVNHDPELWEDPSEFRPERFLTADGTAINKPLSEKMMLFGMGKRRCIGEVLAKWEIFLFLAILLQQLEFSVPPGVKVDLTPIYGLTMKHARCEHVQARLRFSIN

[20] = target: T6, Carboxy-terminal domain RNA polymerase II polypeptide A small phosphatase 1 (Homo sapiens, UniProt Q9GZU7); assay: CTDSP1 inhibitors, concentration-response, biochemical, absorbance readout, ultra-high-throughput screen actives (AID 540297); format: functional
T6 sequence (Q9GZU7 whole entry): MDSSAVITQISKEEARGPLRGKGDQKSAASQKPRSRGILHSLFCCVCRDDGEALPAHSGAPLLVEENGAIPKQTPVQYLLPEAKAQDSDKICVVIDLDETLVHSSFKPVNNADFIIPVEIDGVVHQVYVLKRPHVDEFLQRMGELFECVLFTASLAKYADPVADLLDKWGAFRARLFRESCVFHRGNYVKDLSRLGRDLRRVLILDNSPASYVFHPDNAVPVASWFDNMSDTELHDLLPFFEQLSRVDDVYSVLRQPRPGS

[21] = system: Streptococcus sp. 'group A'; assay: Streptococcus pyogenes SK(-)GAS viability under kanamycin – luminescence, BacTiterGlo, confirmation, counter-screen for streptokinase expression inhibitor project, dose response (AID 1900); format: functional, organism-based
[22] = target: T7, Streptokinase A (Streptococcus pyogenes serotype M1, UniProt P10520); assay: viability-normalized secreted streptokinase activity reduction – plasminogen activation absorbance, OD405, dose response (AID 1914); format: functional, Streptococcus pyogenes M1 GAS;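 note: secreted streptokinase activity via plasminogen activation per viability signal from cell pellet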
T7 sequence (P10520 whole entry): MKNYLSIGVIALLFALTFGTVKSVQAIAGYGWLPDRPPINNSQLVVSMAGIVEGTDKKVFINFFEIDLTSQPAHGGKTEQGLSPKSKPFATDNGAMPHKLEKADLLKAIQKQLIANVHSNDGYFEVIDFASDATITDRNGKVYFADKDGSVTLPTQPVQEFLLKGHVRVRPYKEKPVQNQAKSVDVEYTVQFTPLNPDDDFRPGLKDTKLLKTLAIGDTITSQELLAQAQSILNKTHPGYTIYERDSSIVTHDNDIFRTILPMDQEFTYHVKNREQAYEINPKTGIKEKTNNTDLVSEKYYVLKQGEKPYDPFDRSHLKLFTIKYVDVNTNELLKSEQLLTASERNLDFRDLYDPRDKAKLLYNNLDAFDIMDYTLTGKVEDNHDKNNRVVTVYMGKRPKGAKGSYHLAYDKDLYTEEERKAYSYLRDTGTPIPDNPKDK

[23] = system: Streptococcus; assay: GAS UMAA2166 growth inhibition – luminescence, BacTiterGlo, counter-screen for streptokinase expression inhibitor project, dose response (AID 1915); format: functional, organism-based;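 note: potency for reduction of bacterial viability or growth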
[24] = system: H9c2; assay: cells; format: functional, cell-based; conditions: Rattus norvegicus, H9c2, Myocardium;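 note: confirmatory concentration-response retest of ultra-high-throughput screening hits for modulation of myocardial damage; cell death induced by hydrogen peroxide oxidative stress; compound pretreatment for 60 min then peroxide exposure for 2 h; potency is for protecting the cells against peroxide damage rather than for killing them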

In the case of C[C@]12CC[C@H]3C(=CCc4cc(O)ccc43)[C@@H]1CCC2=O [EQUILIN], the CC50 [1] is reported as 22.6 µM (active), the IC50 [2] is reported as 94.6 µM (active) and the AC50 [3] is reported as 39.8 µM (inconclusive).

In the case of O=C1CC(N2CCN(c3ccccn3)CC2)C(=O)N1CC(c1ccccc1)c1ccccc1 (stereo not given), the EC50 [4] is reported as 5.85 µM (active).

For Sc1nnc(-c2ccccc2)n1/N=C/c1ccc(-c2ccccc2Cl)o1, the AC50 [5] was 4 µM (active), the EC50 [6] was > 260 µM (inactive) and the IC50 [7] was 2.17 µM (active).

In the case of COc1ccc(/C=C2\SC(=S)N(CCC(=O)NCCc3ccc(O)cc3)C2=O)cc1, the IC50 [7] is reported as > 25 µM (active) and the CC50 [8] is reported as > 25 µM (active).

For CN1CCc2c(sc3c2c(=O)n(-c2ccccc2)c2nncn32)C1, the AC50 [9] was “inconclusive”.

For O=C(O)[C@@H](c1ccccc1)[C@@H](C(=O)O)c1ccccc1, the AC50 [9] was “inconclusive”.

With N=C(N)N/N=C/c1ccc2cccc(OCc3ccccc3)c2n1 the EC50 [10] was 0.685 µM (active), the EC50 [11] was > 60 µM (not active) and the IC50 [12] was > 20 µM (inactive). For the same molecule, the IC50 [13] was > 66.6 µM (inactive).

In the case of CC(=O)N1c2ccc(S(=O)(=O)N3CCCC(C(=O)Nc4cccc(Cl)c4)C3)cc2CC1C (stereo not given), the IC50 [13] is reported as > 66.6 µM (inactive).

With Fc1ccc(Cn2nnnc2C(c2ccc(Cl)cc2)N2CCSCC2)cc1 (stereo not given) the EC50 [4] was 9.78 µM (active).

For C[C@]12CC[C@H](O)C[C@H]1CC[C@@H]1[C@@H]2CC[C@]2(C)[C@@H](C3=CC(=O)OC3)CC[C@]12O [DIGITOXIGENIN], the AC50 [5] was 0.467 µM (active), the IC50 [14] was > 80 µM (inactive) and the IC50 [7] was < 0.05 µM (active). The CC50 [8] was 1.45 µM (active) and the AC50 [15] was 1.38 µM (active).

For CO[C@@H]1COC(=O)CC=C[C@@H](C)[C@@H]2C=C[C@H](O)[C@@H](COC(=O)[C@H](C)NC(=O)CC=C[C@H]1C)O2, the AC50 [9] was “inconclusive”.

In the case of CC(=O)Nc1cc(-c2cccc(F)c2)cn2c(-c3ccc(F)c(Cl)c3)cnc12, the EC50 [16] is reported as > 89.2 µM (inactive).

In the case of Cc1cc(C)nc(Nc2nc(C(N)Cc3ccc(Cl)cc3)cs2)n1 (stereo not given), the EC50 [16] is reported as > 89.2 µM (inactive).

In the case of Cc1c(Cl)c(S(N)(=O)=O)cc(S(N)(=O)=O)c1NC(=O)c1ccc(Cl)cc1, the AC50 [17] is reported as “inconclusive” and the AC50 [9] is reported as “inconclusive”.

With O=C(N/N=C/C=C/c1ccccc1)c1cc2c(ccc3ccccc32)o1 the IC50 [18] was 9.73 µM (active) and the AC50 [19] was 0.0447 µM (inconclusive).

With COC(=O)COc1ccc2oc(=O)cc(-c3cc4cccc(OC)c4o3)c2c1 the IC50 [20] was 9.43 µM (active) and the IC50 [18] was 19.1 µM (active).

With O=S(=O)(NCCc1csc(-c2ccccc2)n1)c1ccc2c(c1)OCCO2 the EC50 [4] was 23.2 µM (active).

For Cc1ccc2nc(N3C(=O)CNC3=S)sc2c1, the EC50 [21] was 4.9 µM (active), the EC50 [22] was > 150 µM (not active) and the EC50 [23] was 11.2 µM (active). The IC50 [13] was > 66.6 µM (inactive).

With COc1ccc(CCn2c(=N)c(C(=O)NCc3ccco3)cc3c(=O)n4ccccc4nc32)cc1 the IC50 [18] was 25.7 µM (inactive) and the AC50 [19] was 15.8 µM (inconclusive).

In the case of COc1ccc(-c2cc(NC(C)=O)c3ncc(-c4cccc(C(C)=O)c4)n3c2)cc1OC, the IC50 [24] is reported as > 79 µM (inactive) and the EC50 [16] is reported as > 89.2 µM (inactive).
